Source: patent publication US20240109930A1, “TRIAZOLYL-METHYL SUBSTITUTED ALPHA-D-GALACTOPYRANOSIDE DERIVATIVES” (Idorsia Pharmaceuticals Ltd, priority 2021, published 2024)

Experiments:
human Gal-1 (hGal-1) = human Gal-1 (hGal-1) (Homo sapiens, UniProt P09382, C131S/C17S/C43S/C61S/C89S); assay: Competitive binding assay: biotinylated hGal-1 binding to microplate-adsorbed asialofetuin (ASF); conditions: IC50 values from several measurements given as geomean
Protocol: (§1) The inhibitory activity of compounds is determined in competitive binding assays. This spectrophotometric assay measures the binding of biotinylated human Gal-3 (hGal-3) or human Gal-1 (hGal-1), respectively, to a microplate-adsorbed glycoprotein, asialofetuin (ASF) (Proc Natl Acad Sci USA. 2013 Mar. 26; 110(13):5052-7.). Alternatively, and preferably, a human Gal-1 version in which all six cysteines are substituted by serines may be used.
(§2) Briefly, compounds are serially diluted in DMSO (working dilutions). ASF-coated 384well plates are supplemented with 22.8 μL/well of biotinylated hGal-3 or hGal-1 in assay buffer (i.e. 300-1000 ng/mL biotinylated hGal-3 or hGal-1) to which 1.2 μL of compound working dilutions are added and mixed.
(§3) Plates are incubated for 3 hours at 4° C., then washed with cold assay buffer (3×50 uL), incubated for 1 hour with 25 μL/well of a streptavidin-peroxidase solution (diluted in assay buffer to 80 ng/mL) at 4° C., followed by further washing steps with assay buffer (3×50 uL). Finally, 25 μL/well of ABTS substrate is added.
(§4) The calculated IC50 values may fluctuate depending on the daily assay performance. Fluctuations of this kind are known to those skilled in the art. IC50 values from several measurements are given as geomean values.

human Gal-3 (hGal-3) = human Gal-3 (hGal-3) (Homo sapiens (Human), UniProt P17931); assay: Competitive binding assay: biotinylated hGal-3 binding to microplate-adsorbed asialofetuin (ASF); conditions: IC50 values from several measurements given as geomean
Sequence of human Gal-3 (hGal-3) (P17931 whole entry): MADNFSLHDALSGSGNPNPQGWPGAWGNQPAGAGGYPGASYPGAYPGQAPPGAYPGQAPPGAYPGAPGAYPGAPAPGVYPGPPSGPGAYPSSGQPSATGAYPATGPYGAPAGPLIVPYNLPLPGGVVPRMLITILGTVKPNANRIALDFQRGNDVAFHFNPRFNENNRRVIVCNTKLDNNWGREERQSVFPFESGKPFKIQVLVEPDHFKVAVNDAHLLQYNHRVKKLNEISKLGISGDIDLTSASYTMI
Protocol: as §1, §2, §3, §4

| Structure (SMILES) | IC50 (human Gal-1 (hGal-1)) [nM] | IC50 (human Gal-3 (hGal-3)) [nM] |
| --- | --- | --- |
| CO[C@@H]1[C@@H](n2cc(-c3ccc(Cl)c(F)c3F)nn2)[C@@H](O)[C@@H](CO)O[C@@H]1Cc1cn([C@@H]2CCC[C@@H]2F)nn1 [Example 2.1.79.A, (2R,3R,4S,5R,6R)-4-(4-(4-chloro-2,3-difluorophenyl)-1H-1,2,3-triazol-1-yl)-6-((1-((1R,2S)-2-fluorocyclopentyl)-1H-1,2,3-triazol-4-yl)methyl)-2-(hydroxymethyl)-5-methoxytetrahydro-2H-pyran-3-ol] | 1510 | 20 |
| CO[C@@H]1[C@@H](n2cc(-c3ccc(F)c(F)c3F)nn2)[C@@H](O)[C@@H](CO)O[C@@H]1Cc1cn([C@]2(C)C[C@H](O)C2)nn1 [Ex 3.1.19.] | 260 | 60 |
| CO[C@@H]1[C@@H](n2cc(-c3ccc(F)c(F)c3F)nn2)[C@@H](O)[C@@H](CO)O[C@@H]1Cn1cc(C2(O)CC2)nn1 [Ex 3.2.36.] | 2140 | 130 |
| CO[C@@H]1[C@@H](n2cc(-c3ccc(Cl)c(F)c3F)nn2)[C@@H](O)[C@@H](CO)O[C@@H]1Cc1cn(C2(C)CC2)nn1 [Ex 2.1.23.] | 1090 | 20 |
| COCC1(n2cc(C[C@H]3O[C@H](CO)[C@H](O)[C@H](n4cc(-c5ccc(F)c(F)c5F)nn4)[C@H]3OC)nn2)CC1 [Ex 3.1.7., (2R,3R,4S,5R,6R)-2-(Hydroxymethyl)-5-methoxy-6-((1-(1-(methoxymethyl)cyclopropyl)-1H-1,2,3-triazol-4-yl)methyl)-4-(4-(2,3,4-trifluorophenyl)-1H-1,2,3-triazol-1-yl)tetrahydro-2H-pyran-3-ol] | 1200 | 120 |
| CO[C@@H]1[C@@H](n2cc(-c3ccc(C)c(F)c3F)nn2)[C@@H](O)[C@@H](CO)O[C@@H]1Cc1cn(C2(CO)CCC2)nn1 [Ex 1.1.11.] | 2090 | 40 |
| CO[C@@H]1[C@@H](n2cc(-c3ccc(Br)c(F)c3F)nn2)[C@@H](O)[C@@H](CO)O[C@@H]1Cn1cc(C2(O)CCOCC2)nn1 [Ex 4.2.35.] | 4600 | 70 |
| CO[C@@H]1[C@@H](n2cc(-c3ccc(Cl)c(F)c3F)nn2)[C@@H](O)[C@@H](CO)O[C@@H]1Cc1cn([C@]2(C)C[C@H](F)C2)nn1 [Ex 2.1.47.B] | 1200 | 30 |
| CO[C@@H]1[C@@H](n2cc(-c3ccc(C)c(F)c3F)nn2)[C@@H](O)[C@@H](CO)O[C@@H]1Cc1cn([C@H]2CCC[C@@H]2O)nn1 [Ex 1.1.3.] | 3150 | 40 |
| CO[C@@H]1[C@@H](n2cc(-c3ccc(Cl)c(F)c3F)nn2)[C@@H](O)[C@@H](CO)O[C@@H]1Cc1cn(C(C)(C)CO)nn1 [Ex 2.1.9.] | 1670 | 40 |
| CO[C@@H]1[C@@H](n2cc(-c3ccc(C)c(F)c3F)nn2)[C@@H](O)[C@@H](CO)O[C@@H]1Cc1cn(C23CCC(O)(CC2)CC3)nn1 [Ex 1.1.8.] | 4010 | 50 |
| CO[C@@H]1[C@@H](n2cc(-c3ccc(Cl)c(F)c3F)nn2)[C@@H](O)[C@@H](CO)O[C@@H]1Cc1cn([C@]2(C)CCO[C@@H]2C)nn1 (single isomer, unassigned) [Example 2.1.68.B, (2R,3R,4S,5R,6R)-4-(4-(4-chloro-2,3-difluorophenyl)-1H-1,2,3-triazol-1-yl)-6-((1-((2R*,3R*)-2,3-dimethyltetrahydrofuran-3-yl)-1H-1,2,3-triazol-4-yl)methyl)-2-(hydroxymethyl)-5-methoxytetrahydro-2H-pyran-3-ol] | 670 | 20 |
| CO[C@@H]1[C@@H](n2cc(-c3ccc(C)c(F)c3F)nn2)[C@@H](O)[C@@H](CO)O[C@@H]1Cc1cn(C2(C)CC2)nn1 [Ex 1.1.23.] | 1060 | 20 |
| CO[C@@H]1[C@@H](n2cc(-c3ccc(Cl)c(F)c3F)nn2)[C@@H](O)[C@@H](CO)O[C@@H]1Cc1cn(C2(CCO)COC2)nn1 [Ex 2.1.22.] | 680 | 50 |
| CO[C@@H]1[C@@H](n2cc(-c3ccc(C)c(F)c3F)nn2)[C@@H](O)[C@@H](CO)O[C@@H]1Cc1cn(C2(CO)CC2)nn1 [Ex 1.1.4.] | 2570 | 40 |
| CO[C@@H]1[C@@H](n2cc(-c3ccc(F)c(F)c3F)nn2)[C@@H](O)[C@@H](CO)O[C@@H]1Cc1cn(C23CC(OC)(C2)C3)nn1 [Ex 3.1.29.] | 760 | 30 |
| CO[C@@H]1[C@@H](n2cc(-c3ccc(Cl)c(F)c3F)nn2)[C@@H](O)[C@@H](CO)O[C@@H]1Cc1cn([C@@H]2CC[C@@H]2F)nn1 (relative stereo) [Example 2.1.88.A, (2R,3R,4S,5R,6R)-4-(4-(4-chloro-2,3-difluorophenyl)-1H-1,2,3-triazol-1-yl)-6-((1-((1R*,2S*)-2-fluorocyclobutyl)-1H-1,2,3-triazol-4-yl)methyl)-2-(hydroxymethyl)-5-methoxytetrahydro-2H-pyran-3-ol] | 1770 |  |
| CO[C@@H]1[C@@H](n2cc(-c3ccc(Cl)c(F)c3F)nn2)[C@@H](O)[C@@H](CO)O[C@@H]1Cc1cn(C2COCCC2(F)F)nn1 (stereo partly drawn) [Example 2.1.73.A, (2R,3R,4S,5R,6R)-4-(4-(4-chloro-2,3-difluorophenyl)-1H-1,2,3-triazol-1-yl)-6-((1-(4,4-difluorotetrahydro-2H-pyran-3-yl)-1H-1,2,3-triazol-4-yl)methyl)-2-(hydroxymethyl)-5-methoxytetrahydro-2H-pyran-3-ol] | 1400 |  |
| CO[C@@H]1[C@@H](n2cc(-c3ccc(Cl)c(F)c3F)nn2)[C@@H](O)[C@@H](CO)O[C@@H]1Cc1cn([C@@H]2CC[C@H]2F)nn1 (relative stereo) [Example 2.1.88.C, (2R,3R,4S,5R,6R)-4-(4-(4-chloro-2,3-difluorophenyl)-1H-1,2,3-triazol-1-yl)-6-((1-((1R*,2R*)-2-fluorocyclobutyl)-1H-1,2,3-triazol-4-yl)methyl)-2-(hydroxymethyl)-5-methoxytetrahydro-2H-pyran-3-ol] | 1680 |  |
| CO[C@@H]1[C@@H](n2cc(-c3ccc(Cl)c(F)c3F)nn2)[C@@H](O)[C@@H](CO)O[C@@H]1Cc1cn(C2(C(F)(F)F)CCOC2)nn1 (stereo partly drawn) [Example 2.1.77.A, (2R,3R,4S,5R,6R)-4-(4-(4-chloro-2,3-difluorophenyl)-1H-1,2,3-triazol-1-yl)-2-(hydroxymethyl)-5-methoxy-6-((1-(3-(trifluoromethyl)tetrahydrofuran-3-yl)-1H-1,2,3-triazol-4-yl)methyl)tetrahydro-2H-pyran-3-ol] | 760 |  |
| CO[C@@H]1[C@@H](n2cc(-c3ccc(F)c(F)c3F)nn2)[C@@H](O)[C@@H](CO)O[C@@H]1Cn1cc(C2(O)CCC2)nn1 [Ex 3.2.31.] | 730 |  |
| CO[C@@H]1[C@@H](n2cc(-c3ccc(F)c(F)c3F)nn2)[C@@H](O)[C@@H](CO)O[C@@H]1Cc1cn(C23COC(C2)C3)nn1 [Example 3.1.44, (2R,3R,4S,5R,6R)-6-((1-(2-oxabicyclo[2.1.1]hexan-4-yl)-1H-1,2,3-triazol-4-yl)methyl)-2-(hydroxymethyl)-5-methoxy-4-(4-(2,3,4-trifluorophenyl)-1H-1,2,3-triazol-1-yl)tetrahydro-2H-pyran-3-ol] |  | 40 |
| CO[C@@H]1[C@@H](n2cc(-c3ccc(Br)c(F)c3F)nn2)[C@@H](O)[C@@H](CO)O[C@@H]1Cn1cc(C2(O)CCC2)nn1 [Ex 4.2.31.] | 2550 |  |
| CO[C@@H]1[C@@H](n2cc(-c3ccc(F)c(F)c3F)nn2)[C@@H](O)[C@@H](CO)O[C@@H]1Cc1cn(C23COC(C2)C3)nn1 [Ex 3.1.44.] | 800 |  |
